Test results from article PMC4447944 (The Journal of Biological Chemistry, 2015).

Assays:
[1] = target: T1, hAMPK-alpha2 (Homo sapiens, UniProt P54646); assay: KINOMEscan; type: binding
T1 construct: purchased DiscoverX

[2] = target: T2, hAURKC (Homo sapiens, UniProt Q9UQB9); assay: KINOMEscan; type: binding
T2 construct: purchased DiscoverX

[3] = target: T3, hBRAF(V600E) (Homo sapiens, UniProt P15056, V600E); assay: KINOMEscan; type: binding
T3 construct: purchased DiscoverX

[4] = target: T4, hBUB1 (Homo sapiens, UniProt O43683); assay: KINOMEscan; type: binding
T4 construct: purchased DiscoverX

[5] = target: T5, hCAMK4 (Homo sapiens, UniProt Q16566); assay: KINOMEscan; type: binding
T5 construct: purchased DiscoverX

[6] = target: T6, hCAMKK1 (Homo sapiens, UniProt Q8N5S9); assay: KINOMEscan; type: binding
T6 construct: purchased DiscoverX

[7] = target: T7, hCDKL3 (Homo sapiens, UniProt Q8IVW4); assay: KINOMEscan; type: binding
T7 construct: purchased DiscoverX

[8] = target: T8, hCSNK1A1L (Homo sapiens, UniProt Q8N752); assay: KINOMEscan; type: binding
T8 construct: purchased DiscoverX (KINOMEscan platform)
T8 sequence (Q8N752 whole entry): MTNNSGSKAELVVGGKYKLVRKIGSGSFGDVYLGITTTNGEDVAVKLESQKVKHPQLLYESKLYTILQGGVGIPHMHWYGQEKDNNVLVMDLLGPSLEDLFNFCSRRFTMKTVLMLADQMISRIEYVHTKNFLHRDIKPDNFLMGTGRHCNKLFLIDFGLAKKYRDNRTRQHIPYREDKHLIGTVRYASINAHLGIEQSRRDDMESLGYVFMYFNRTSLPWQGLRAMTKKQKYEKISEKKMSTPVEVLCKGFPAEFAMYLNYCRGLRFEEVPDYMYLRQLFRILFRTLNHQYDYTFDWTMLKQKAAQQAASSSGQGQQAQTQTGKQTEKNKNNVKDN

[9] = target: T9, hEPHA7 (Homo sapiens, UniProt Q15375); assay: KINOMEscan; type: binding
T9 construct: purchased DiscoverX
T9 sequence (Q15375 28-998): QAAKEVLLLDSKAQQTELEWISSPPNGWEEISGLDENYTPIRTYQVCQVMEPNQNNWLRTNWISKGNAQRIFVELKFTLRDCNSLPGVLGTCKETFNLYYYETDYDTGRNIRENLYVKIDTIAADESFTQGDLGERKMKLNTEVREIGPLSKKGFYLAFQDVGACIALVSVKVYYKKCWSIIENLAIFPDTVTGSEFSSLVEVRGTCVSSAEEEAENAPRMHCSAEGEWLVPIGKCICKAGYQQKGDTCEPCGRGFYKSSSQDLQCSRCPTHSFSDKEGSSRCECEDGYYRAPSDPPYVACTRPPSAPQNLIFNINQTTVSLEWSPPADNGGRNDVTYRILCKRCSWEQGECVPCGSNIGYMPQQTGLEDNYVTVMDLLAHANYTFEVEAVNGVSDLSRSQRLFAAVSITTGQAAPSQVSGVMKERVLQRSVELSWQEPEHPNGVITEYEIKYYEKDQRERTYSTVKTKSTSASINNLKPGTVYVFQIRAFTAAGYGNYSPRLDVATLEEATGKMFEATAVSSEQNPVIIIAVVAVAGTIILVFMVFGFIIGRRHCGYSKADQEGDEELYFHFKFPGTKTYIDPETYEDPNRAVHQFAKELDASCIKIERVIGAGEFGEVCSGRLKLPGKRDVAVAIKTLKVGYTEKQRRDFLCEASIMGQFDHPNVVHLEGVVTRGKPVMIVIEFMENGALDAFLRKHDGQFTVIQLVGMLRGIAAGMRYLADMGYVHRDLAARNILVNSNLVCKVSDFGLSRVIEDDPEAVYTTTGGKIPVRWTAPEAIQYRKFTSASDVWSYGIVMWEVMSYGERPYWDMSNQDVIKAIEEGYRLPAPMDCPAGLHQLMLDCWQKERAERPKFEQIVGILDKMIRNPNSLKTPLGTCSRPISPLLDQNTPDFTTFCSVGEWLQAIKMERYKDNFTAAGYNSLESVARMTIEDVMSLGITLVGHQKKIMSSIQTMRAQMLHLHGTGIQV

[10] = target: T10, hFES (Homo sapiens, UniProt P07332); assay: KINOMEscan; type: binding
T10 construct: purchased DiscoverX

[11] = target: hFLT3(ITD); assay: KINOMEscan; type: binding, human
[12] = target: T11, hJAK1(JH1Dom.-catalytic) (Homo sapiens, UniProt P23458); assay: KINOMEscan; type: binding
T11 construct: hJAK1(JH1Dom.-catalytic); purchased DiscoverX (KINOMEscan panel)
T11 sequence (P23458 875-1153 limits assumed): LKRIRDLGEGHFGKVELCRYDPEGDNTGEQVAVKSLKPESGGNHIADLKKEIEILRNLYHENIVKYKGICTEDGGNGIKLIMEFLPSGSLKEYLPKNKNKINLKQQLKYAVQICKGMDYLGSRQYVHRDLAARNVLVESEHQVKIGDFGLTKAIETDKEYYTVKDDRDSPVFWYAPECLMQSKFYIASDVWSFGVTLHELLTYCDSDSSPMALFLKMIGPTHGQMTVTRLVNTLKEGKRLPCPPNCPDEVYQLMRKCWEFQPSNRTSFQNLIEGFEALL

[13] = target: T12, hJAK2(JH1Dom.-catalytic) (Homo sapiens, UniProt O60674); assay: KINOMEscan; type: binding
T12 construct: hJAK2(JH1Dom.-catalytic); purchased DiscoverX (KINOMEscan panel)

[14] = target: T13, hJAK3(JH1Dom.-catalytic) (Homo sapiens, UniProt P52333); assay: KINOMEscan; type: binding
T13 construct: hJAK3(JH1Dom.-catalytic); purchased DiscoverX (KINOMEscan panel)

[15] = target: T14, hMAP4K5 (Homo sapiens, UniProt Q9Y4K4); assay: KINOMEscan; type: binding
T14 construct: purchased DiscoverX

[16] = target: T15, hMLCK (Homo sapiens, UniProt Q32MK0); assay: KINOMEscan; type: binding
T15 construct: purchased DiscoverX
T15 sequence (Q32MK0 whole entry): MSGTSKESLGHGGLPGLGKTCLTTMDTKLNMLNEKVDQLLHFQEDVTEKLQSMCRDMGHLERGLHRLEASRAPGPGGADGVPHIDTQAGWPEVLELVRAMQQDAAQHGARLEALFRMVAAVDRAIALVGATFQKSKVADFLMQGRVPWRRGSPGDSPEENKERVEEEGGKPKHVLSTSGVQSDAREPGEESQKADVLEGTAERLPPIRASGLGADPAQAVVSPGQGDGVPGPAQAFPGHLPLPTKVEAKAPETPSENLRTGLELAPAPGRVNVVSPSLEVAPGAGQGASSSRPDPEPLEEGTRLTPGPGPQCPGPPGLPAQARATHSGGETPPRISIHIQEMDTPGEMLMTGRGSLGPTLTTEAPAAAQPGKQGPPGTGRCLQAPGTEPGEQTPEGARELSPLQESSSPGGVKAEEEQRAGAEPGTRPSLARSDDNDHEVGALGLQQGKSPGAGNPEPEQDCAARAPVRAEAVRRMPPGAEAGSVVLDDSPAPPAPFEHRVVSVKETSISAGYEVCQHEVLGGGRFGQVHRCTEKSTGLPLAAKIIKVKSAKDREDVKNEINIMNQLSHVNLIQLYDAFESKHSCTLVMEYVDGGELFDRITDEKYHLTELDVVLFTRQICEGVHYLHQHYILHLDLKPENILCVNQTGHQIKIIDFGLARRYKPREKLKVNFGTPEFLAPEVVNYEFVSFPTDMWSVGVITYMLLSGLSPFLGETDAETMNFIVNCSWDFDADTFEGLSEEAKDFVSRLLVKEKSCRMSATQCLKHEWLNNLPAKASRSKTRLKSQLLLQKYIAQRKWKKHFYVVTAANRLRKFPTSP

[17] = target: T16, hRSK4(Kin.Dom.2-C-term) (Homo sapiens, UniProt Q9UK32); assay: KINOMEscan; type: binding
T16 construct: hRSK4(Kin.Dom.2-C-term); purchased DiscoverX (KINOMEscan platform)

[18] = target: T17, hSTK33 (Homo sapiens, UniProt Q9BYT3); assay: KINOMEscan; type: binding
T17 construct: purchased DiscoverX (KINOMEscan platform)
T17 sequence (Q9BYT3 whole entry): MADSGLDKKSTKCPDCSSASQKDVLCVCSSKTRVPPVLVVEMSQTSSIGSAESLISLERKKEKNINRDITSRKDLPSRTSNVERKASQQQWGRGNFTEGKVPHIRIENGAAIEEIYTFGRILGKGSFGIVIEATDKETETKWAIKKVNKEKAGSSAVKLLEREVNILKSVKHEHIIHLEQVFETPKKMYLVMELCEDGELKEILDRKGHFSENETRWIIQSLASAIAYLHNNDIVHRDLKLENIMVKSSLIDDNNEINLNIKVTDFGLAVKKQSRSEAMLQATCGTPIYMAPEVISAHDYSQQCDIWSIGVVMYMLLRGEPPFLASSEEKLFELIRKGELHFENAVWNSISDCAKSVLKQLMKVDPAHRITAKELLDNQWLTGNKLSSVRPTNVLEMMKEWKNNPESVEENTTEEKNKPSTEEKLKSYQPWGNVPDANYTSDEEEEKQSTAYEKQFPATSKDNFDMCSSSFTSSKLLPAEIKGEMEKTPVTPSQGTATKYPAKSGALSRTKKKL

[19] = target: T18, hTESK1 (Homo sapiens, UniProt Q15569); assay: KINOMEscan; type: binding
T18 construct: purchased DiscoverX

[20] = target: T19, hTSSK1B (Homo sapiens, UniProt Q9BXA7); assay: KINOMEscan; type: binding
T19 construct: purchased DiscoverX

[21] = target: T20, hVEGFR2 (Homo sapiens, UniProt P35968); assay: KINOMEscan; type: binding
T20 construct: purchased DiscoverX

[22] = target: T21, hWNK1 (Homo sapiens, UniProt Q9H4A3); assay: KINOMEscan; type: binding
T21 construct: purchased DiscoverX

[23] = target: T22, hYSK4 (Homo sapiens, UniProt Q56UN5); assay: KINOMEscan; type: binding
T22 construct: purchased DiscoverX

[24] = target: T23, hADRα2A (Homo sapiens, UniProt P08913); assay: cAMP Agonist (Eurofins-CEREP); details: @ 10 μM
T23 sequence (P08913 1-465): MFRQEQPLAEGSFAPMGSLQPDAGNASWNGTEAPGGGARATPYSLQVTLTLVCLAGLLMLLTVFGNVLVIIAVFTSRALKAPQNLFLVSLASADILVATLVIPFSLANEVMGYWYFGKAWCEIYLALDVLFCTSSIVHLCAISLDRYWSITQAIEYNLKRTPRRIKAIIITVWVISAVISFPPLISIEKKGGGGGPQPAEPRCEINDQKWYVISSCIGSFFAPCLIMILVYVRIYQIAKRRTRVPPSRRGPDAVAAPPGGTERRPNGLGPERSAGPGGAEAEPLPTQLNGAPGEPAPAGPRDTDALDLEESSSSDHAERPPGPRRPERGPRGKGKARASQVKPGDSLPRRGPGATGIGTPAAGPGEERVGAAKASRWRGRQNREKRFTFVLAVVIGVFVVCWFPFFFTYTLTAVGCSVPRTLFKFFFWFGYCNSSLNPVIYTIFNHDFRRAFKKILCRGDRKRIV

[25] = target: hADRβ2 (Homo sapiens, UniProt P07550); assay: cAMP Agonist (Eurofins-CEREP); details: @ 10 μM
[26] = target: hOPRm1 (Homo sapiens, UniProt P35372); assay: cAMP Agonist (Eurofins-CEREP); details: @ 1 μM
Chain of hOPRm1 (P35372 whole entry): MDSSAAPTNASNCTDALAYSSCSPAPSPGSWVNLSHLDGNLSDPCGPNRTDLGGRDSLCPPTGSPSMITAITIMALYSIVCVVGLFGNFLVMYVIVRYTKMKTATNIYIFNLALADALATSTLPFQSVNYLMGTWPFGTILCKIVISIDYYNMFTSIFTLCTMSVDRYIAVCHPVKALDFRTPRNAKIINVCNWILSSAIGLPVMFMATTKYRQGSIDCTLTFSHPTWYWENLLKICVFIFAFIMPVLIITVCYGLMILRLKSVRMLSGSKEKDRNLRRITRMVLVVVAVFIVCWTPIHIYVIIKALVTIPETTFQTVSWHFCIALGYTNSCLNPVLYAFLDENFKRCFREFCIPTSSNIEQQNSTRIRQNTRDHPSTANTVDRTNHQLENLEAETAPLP

[27] = target: T23, hADRα2A; assay: β-arrestin Antagonist (Eurofins-CEREP); details: read-out: % Effect, Inhibition
[28] = target: T24, hADRα1A (Homo sapiens, UniProt P35348); assay: Calcium Mobilization Antagonist (Eurofins-CEREP); details: read-out: % Effect, Inhibition
T24 sequence (P35348 1-466): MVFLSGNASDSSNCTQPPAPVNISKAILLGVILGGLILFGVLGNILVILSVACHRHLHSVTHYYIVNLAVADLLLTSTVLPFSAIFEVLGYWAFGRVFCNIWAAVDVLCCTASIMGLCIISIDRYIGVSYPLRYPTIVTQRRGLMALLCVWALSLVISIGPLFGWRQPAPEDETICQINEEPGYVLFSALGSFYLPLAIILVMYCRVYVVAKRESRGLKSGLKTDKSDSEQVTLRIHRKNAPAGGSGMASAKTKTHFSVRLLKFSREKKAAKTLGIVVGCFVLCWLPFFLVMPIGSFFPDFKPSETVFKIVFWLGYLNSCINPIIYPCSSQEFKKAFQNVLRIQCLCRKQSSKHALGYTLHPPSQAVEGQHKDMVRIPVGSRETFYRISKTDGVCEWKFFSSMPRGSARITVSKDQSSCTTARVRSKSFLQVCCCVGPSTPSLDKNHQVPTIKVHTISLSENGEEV

T2 sequence (Q9UQB9 whole entry): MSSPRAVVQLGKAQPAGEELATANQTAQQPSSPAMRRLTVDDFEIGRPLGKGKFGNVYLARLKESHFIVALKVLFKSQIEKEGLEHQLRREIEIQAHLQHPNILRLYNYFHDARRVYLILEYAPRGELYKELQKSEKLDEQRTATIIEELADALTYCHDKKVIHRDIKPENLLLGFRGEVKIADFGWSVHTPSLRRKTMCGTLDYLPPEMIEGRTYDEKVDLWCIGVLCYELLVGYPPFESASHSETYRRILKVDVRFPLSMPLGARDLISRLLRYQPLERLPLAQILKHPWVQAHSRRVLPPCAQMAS
T3 sequence (P15056 whole entry V600E): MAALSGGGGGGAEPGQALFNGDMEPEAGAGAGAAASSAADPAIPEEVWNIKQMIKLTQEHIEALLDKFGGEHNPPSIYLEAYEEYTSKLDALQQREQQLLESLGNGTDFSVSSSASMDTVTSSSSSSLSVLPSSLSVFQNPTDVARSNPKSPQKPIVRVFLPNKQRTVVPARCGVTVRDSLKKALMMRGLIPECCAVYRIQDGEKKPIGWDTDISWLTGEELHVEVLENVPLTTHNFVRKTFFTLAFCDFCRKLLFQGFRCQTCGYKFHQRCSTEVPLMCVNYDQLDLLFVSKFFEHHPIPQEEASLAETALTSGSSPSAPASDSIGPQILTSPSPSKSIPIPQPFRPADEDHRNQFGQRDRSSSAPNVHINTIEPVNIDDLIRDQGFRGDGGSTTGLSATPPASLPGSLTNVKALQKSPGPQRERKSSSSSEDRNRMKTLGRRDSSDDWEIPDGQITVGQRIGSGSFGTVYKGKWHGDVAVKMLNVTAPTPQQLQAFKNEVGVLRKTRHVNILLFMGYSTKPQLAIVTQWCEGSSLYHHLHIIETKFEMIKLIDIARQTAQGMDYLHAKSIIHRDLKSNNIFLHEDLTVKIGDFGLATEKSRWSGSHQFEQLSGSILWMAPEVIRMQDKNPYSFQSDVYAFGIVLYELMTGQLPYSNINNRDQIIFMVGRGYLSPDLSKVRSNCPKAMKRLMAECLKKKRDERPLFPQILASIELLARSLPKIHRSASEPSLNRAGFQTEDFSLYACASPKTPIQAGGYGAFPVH
T1 sequence (P54646 whole entry): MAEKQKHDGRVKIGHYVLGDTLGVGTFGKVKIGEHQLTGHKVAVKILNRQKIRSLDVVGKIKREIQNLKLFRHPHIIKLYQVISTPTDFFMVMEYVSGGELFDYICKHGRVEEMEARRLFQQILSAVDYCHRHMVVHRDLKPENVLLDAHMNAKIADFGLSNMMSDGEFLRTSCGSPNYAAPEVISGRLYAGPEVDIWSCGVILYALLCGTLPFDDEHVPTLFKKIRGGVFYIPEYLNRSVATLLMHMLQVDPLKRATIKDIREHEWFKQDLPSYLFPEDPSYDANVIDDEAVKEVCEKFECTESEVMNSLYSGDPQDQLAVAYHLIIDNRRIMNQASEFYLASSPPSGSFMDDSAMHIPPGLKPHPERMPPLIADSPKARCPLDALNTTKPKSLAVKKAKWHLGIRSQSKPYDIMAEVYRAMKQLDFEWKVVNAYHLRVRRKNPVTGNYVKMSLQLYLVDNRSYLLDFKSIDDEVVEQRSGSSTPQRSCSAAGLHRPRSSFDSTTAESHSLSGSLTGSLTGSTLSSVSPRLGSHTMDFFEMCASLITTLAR

Cc1cn(CCN2CCN(c3ccccc3-c3cc(C#N)cc(C(=O)NCCCN4CCCC4)c3)CC2)c2ccccc12 [LLY-507, 3-cyano-5-{2-[4-[2-(3-methylindol-1-yl)ethyl]piperazin-1-yl]-phenyl}-N-[(3-pyrrolidin-1-yl)propyl]benzamide] was tested, and the IC50 [1] was greater than 20 µM, the IC50 [2] was greater than 20 µM and the IC50 [3] was greater than 20 µM. The IC50 [4] was greater than 20 µM, the IC50 [5] was greater than 20 µM and the IC50 [6] was greater than 20 µM. For the same compound, the IC50 [7] was greater than 20 µM, the IC50 [8] was greater than 20 µM and the IC50 [9] was greater than 20 µM. The IC50 [10] was greater than 20 µM, the IC50 [11] was greater than 20 µM and the IC50 [12] was greater than 20 µM. For the same compound, the IC50 [13] was greater than 20 µM, the IC50 [14] was greater than 20 µM and the IC50 [15] was greater than 20 µM. For the same compound, the IC50 [16] was greater than 20 µM, the IC50 [17] was greater than 20 µM and the IC50 [18] was greater than 20 µM. The IC50 [19] was greater than 20 µM, the IC50 [20] was greater than 20 µM and the IC50 [21] was greater than 20 µM. For the same compound, the IC50 [22] was greater than 20 µM, the IC50 [23] was greater than 20 µM and the “% Effect, Stimulation” value [24] was 0.2%. For the same compound, the “% Effect, Stimulation” value [25] was 0.1%, the “% Effect, Stimulation” value [26] was 7.4% and the inhibition at 10 µM [27] was -27.7%. For the same compound, the inhibition at 10 µM [28] was 98%.
